Where two headings read alike, the source gives them in different places.
What was measured:
[1] = molecular target: EGFR wildtype (WT) (Homo sapiens, UniProt P00533); test: Biochemical EGFR kinase assay (Lance Ultra TR-FRET), wildtype
Summary of the method: (§1)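 Kinase activity is measured by TR-FRET phosphopeptide detection. Compounds span 0.003 μM to 10 μM; the 1 h reaction at room temperature is quenched with EDTA, then labelled antibody (2 nM) is incubated 60 min before reading.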

[2] = molecular target: EGFR del19/C797S (Homo sapiens, UniProt P00533, C797S/DEL746-750); test: Biochemical EGFR kinase assay (Lance Ultra TR-FRET), double mutant del19/C797S
Chain of EGFR del19/C797S (P00533 with tags, fused parts or gaps DEL746-750/C797S): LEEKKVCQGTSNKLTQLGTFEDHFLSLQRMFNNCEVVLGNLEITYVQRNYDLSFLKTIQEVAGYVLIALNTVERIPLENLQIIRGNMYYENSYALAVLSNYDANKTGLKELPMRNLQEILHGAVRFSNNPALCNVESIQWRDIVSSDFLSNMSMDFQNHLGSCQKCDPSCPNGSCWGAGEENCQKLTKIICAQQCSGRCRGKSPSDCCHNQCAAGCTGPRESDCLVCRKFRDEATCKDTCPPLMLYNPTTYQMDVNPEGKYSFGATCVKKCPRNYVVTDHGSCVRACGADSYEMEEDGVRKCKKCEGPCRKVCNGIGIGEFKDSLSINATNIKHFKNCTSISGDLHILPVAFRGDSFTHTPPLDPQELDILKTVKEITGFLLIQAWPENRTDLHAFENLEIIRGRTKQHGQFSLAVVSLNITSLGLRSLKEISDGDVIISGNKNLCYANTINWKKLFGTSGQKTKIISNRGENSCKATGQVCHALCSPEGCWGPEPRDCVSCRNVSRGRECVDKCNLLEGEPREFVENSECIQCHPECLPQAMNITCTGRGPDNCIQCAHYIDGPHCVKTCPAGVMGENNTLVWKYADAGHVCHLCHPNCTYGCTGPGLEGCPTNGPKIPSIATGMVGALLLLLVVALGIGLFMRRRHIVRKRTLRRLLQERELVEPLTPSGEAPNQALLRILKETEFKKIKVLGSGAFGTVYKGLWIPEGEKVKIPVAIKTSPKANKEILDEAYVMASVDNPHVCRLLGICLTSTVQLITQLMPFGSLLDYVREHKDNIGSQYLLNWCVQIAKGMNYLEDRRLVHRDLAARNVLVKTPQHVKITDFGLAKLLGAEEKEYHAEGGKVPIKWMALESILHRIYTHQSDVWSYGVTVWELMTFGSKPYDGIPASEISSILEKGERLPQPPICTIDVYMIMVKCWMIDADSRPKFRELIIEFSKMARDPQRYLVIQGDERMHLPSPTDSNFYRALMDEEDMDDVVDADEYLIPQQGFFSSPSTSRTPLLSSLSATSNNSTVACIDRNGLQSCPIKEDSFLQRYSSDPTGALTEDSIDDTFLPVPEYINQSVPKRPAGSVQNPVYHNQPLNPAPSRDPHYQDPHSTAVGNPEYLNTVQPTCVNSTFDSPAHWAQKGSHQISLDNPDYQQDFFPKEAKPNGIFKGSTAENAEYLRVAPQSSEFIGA
Summary of the method: as §1

[3] = molecular target: EGFR L858R/C797S (Homo sapiens, UniProt P00533, C797S/L858R); test: Biochemical EGFR kinase assay (Lance Ultra TR-FRET), double mutant L858R/C797S
Chain of EGFR L858R/C797S (P00533 25-1210 C797S/L858R): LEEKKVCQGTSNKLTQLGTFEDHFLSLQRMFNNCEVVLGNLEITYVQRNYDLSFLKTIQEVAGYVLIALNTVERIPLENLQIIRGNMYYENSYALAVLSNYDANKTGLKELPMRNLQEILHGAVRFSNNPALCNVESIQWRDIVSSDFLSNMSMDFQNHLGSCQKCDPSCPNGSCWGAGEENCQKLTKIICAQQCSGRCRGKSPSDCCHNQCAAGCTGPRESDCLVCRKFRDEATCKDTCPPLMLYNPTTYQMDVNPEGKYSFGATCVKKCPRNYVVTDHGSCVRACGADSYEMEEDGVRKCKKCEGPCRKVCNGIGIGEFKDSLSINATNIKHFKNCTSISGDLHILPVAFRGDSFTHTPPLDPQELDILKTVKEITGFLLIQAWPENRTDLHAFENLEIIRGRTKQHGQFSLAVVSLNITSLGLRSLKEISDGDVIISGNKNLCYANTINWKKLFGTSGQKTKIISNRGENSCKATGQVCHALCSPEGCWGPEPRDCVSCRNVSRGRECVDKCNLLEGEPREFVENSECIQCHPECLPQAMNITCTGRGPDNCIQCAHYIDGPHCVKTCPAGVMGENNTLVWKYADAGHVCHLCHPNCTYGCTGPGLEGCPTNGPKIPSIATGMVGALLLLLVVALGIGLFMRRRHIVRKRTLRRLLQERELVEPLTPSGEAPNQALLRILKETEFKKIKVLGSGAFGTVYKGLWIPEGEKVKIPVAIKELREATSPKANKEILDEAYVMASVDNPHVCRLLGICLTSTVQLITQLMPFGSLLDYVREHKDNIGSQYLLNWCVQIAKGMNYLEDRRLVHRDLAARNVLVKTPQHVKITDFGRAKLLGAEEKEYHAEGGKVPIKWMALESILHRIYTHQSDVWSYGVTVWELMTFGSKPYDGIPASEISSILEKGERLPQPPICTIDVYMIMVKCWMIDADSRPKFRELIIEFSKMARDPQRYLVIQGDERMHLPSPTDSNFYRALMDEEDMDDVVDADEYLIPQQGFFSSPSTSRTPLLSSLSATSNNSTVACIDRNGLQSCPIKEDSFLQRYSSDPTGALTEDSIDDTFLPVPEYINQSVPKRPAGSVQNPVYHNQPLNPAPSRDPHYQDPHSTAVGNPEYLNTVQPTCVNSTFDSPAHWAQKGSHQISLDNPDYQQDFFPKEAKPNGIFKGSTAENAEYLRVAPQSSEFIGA
Summary of the method: as §1

[4] = molecular target: EGFR del19/T790M/C797S (Homo sapiens, UniProt P00533, C797S/DEL746-750/T790M); test: Biochemical EGFR kinase assay (Lance Ultra TR-FRET), triple mutant del19/T790M/C797S
Summary of the method: as §1

[5] = molecular target: EGFR L858R/T790M/C797S (Homo sapiens, UniProt P00533, C797S/L858R/T790M); test: Biochemical EGFR kinase assay (Lance Ultra TR-FRET), triple mutant L858R/T790M/C797S
Chain of EGFR L858R/T790M/C797S (P00533 25-1210 T790M/C797S/L858R): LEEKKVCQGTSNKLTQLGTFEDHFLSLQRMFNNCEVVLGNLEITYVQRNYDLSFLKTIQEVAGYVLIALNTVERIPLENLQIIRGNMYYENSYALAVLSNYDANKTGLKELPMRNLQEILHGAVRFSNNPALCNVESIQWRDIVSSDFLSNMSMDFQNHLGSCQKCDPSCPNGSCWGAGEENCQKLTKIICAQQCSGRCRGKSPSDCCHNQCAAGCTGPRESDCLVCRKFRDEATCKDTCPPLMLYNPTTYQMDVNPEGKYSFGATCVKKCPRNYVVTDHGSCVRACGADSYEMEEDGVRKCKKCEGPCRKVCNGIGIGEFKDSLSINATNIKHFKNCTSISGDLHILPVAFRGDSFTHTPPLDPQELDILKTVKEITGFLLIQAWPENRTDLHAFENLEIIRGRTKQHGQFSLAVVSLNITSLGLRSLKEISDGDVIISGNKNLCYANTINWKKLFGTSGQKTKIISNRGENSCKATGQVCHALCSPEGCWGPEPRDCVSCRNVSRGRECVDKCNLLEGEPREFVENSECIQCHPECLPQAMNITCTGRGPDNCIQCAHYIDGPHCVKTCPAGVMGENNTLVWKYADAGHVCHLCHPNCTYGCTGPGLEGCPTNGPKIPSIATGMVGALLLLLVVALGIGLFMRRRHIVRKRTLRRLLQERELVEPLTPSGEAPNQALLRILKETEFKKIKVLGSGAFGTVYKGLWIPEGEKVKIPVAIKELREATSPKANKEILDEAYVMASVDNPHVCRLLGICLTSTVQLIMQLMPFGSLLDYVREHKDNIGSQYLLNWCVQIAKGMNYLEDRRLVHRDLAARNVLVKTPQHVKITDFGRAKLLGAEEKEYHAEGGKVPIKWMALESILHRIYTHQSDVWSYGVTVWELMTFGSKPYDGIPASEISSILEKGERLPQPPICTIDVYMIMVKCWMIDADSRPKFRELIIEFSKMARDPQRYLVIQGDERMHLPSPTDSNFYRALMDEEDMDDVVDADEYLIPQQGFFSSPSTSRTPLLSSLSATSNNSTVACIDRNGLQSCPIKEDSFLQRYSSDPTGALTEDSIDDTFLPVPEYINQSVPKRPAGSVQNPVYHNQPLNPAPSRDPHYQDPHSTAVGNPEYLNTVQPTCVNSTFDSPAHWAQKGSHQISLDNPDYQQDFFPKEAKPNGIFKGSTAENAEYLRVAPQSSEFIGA
Summary of the method: as §1

[6] = Km ATP, read-out: IC50 WT (nM) Km ATP
[7] = Km ATP, read-out: IC50 del19/C797S (nM) Km ATP
[8] = Km ATP, read-out: IC50 L858R/C797S (nM) Km ATP
[9] = Km ATP, read-out: IC50 del19/T790M/C797S (nM) Km ATP
[10] = Km ATP, read-out: IC50 L858R/T790M/C797S (nM) Km ATP
[11] = IC50 WT (nM) 100 μM ATP, 100 μM ATP
[12] = IC50 del19/C797S (nM) 100 μM ATP, 100 μM ATP
[13] = IC50 L858R/C797S (nM) 100 μM ATP, 100 μM ATP
[14] = IC50 del19/T790M/C797S (nM) 100 μM ATP, 100 μM ATP
[15] = IC50 L858R/T790M/C797S (nM) 100 μM ATP, 100 μM ATP

Chain of EGFR wildtype (WT) (P00533 25-1210): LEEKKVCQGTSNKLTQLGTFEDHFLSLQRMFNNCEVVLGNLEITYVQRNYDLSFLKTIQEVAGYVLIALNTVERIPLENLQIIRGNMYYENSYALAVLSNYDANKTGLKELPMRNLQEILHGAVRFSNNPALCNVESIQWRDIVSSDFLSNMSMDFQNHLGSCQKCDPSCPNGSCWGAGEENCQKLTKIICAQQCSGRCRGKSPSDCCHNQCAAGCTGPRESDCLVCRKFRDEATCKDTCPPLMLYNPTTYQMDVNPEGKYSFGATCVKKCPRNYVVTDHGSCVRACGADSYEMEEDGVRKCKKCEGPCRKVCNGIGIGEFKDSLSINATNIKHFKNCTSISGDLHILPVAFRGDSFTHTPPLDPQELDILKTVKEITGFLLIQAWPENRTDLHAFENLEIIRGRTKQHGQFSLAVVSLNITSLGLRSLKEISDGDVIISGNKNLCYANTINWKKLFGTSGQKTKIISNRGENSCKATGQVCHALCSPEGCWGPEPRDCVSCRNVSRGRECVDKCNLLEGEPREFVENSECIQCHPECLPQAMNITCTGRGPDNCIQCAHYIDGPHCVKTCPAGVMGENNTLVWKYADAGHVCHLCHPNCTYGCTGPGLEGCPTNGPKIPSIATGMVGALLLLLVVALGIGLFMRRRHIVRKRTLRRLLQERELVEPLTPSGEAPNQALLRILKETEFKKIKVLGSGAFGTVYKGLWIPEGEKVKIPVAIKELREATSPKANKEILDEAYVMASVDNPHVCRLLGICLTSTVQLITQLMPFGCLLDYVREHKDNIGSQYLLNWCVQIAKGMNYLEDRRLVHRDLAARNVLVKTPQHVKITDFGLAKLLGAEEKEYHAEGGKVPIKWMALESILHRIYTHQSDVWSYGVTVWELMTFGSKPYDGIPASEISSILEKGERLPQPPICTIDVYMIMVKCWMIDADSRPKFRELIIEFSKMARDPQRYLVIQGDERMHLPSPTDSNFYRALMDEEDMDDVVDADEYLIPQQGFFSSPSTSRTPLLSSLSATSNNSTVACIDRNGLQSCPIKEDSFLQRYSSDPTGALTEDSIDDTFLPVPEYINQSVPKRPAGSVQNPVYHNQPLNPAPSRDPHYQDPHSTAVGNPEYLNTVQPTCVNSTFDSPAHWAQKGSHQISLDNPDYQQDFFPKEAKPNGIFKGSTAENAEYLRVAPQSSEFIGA

SMILES	IC50 [1, 6] [nM]	IC50 [2, 7] [nM]	IC50 [3, 8] [nM]	IC50 [4, 9] [nM]	IC50 [5, 10] [nM]	IC50 [1, 11] [nM]	IC50 [2, 12] [nM]	IC50 [3, 13] [nM]	IC50 [4, 14] [nM]	IC50 [5, 15] [nM]
CC(C)Nc1cc(Nc2ccnc(-c3cnn(S(=O)(=O)C4CC4)c3)n2)ncc1-c1ccn(CCC(F)(F)F)n1 [Example 304, N^2-(2-(1-(Cyclopropylsulfonyl)-1H-pyrazol-4-yl)pyrimidin-4-yl)-N^4-isopropyl-5-(1-(3,3,3-trifluoropropyl)-1H-pyrazol-3-yl)pyridine-2,4-diamine]	355	340	0.8	1.1	1.8	–	–	–	–	–
O=S(=O)(C1CC1)n1cc(-c2nccc(Nc3cc(N[C@H]4CC[C@@H](F)CC4)c(-c4ccn(CCC(F)(F)F)n4)cn3)n2)cn1 [Example 306, N^2-(2-(1-(Cyclopropylsulfonyl)-1H-pyrazol-4-yl)pyrimidin-4-yl)-N^4-((1s,4s)-4-fluorocyclohexyl)-5-(1-(3,3,3-trifluoropropyl)-1H-pyrazol-3-yl)pyridine-2,4-diamine]	1290	171	47.9	9.1	5.9	–	–	–	–	–
CCS(=O)(=O)n1ccc(-c2nccc(Nc3cc(N[C@H]4CC[C@@](C)(O)CC4)c(-c4ccn(C(F)F)n4)cn3)n2)n1 [Example 309, (1s,4s)-4-((5-(1-(Difluoromethyl)-1H-pyrazol-3-yl)-2-((2-(1-(ethylsulfonyl)-1H-pyrazol-3-yl)pyrimidin-4-yl)amino)pyridin-4-yl)amino)-1-methylcyclohexan-1-ol]	5.5	460	42.9	4.4	4.9	> 10000	343	> 10000	3.8	29.9
CN(C)C(=O)n1cc(-c2nccc(Nc3cc(N[C@H]4CC[C@@](C)(O)CC4)c(-c4ccn(C(F)F)n4)cn3)n2)cn1 [Example 311, 4-(4-((5-(1-(Difluoromethyl)-1H-pyrazol-3-yl)-4-(((1s,4s)-4-hydroxy-4-methylcyclohexyl)amino)pyridin-2-yl)amino)pyrimidin-2-yl)-N,N-dimethyl-1H-pyrazole-1-carboxamide]	–	–	–	–	–	> 10000	30.1	1020	3.5	25.6

Continued by falling IC50 [2, 7], values first:

IC50 [1, 6] [nM]	IC50 [2, 7] [nM]	IC50 [3, 8] [nM]	IC50 [4, 9] [nM]	IC50 [5, 10] [nM]	IC50 [1, 11] [nM]	IC50 [2, 12] [nM]	IC50 [3, 13] [nM]	IC50 [4, 14] [nM]	IC50 [5, 15] [nM]	SMILES
853	67.7	12	8	5.3	–	–	–	–	–	O=S(=O)(C1CC1)n1cc(-c2nccc(Nc3cc(N[C@H]4CC[C@@H](F)CC4)c(-c4ccn(CC(F)(F)F)n4)cn3)n2)cn1 [Example 305, N^2-(2-(1-(Cyclopropylsulfonyl)-1H-pyrazol-4-yl)pyrimidin-4-yl)-N^4-((1s,4s)-4-fluorocyclohexyl)-5-(1-(2,2,2-trifluoroethyl)-1H-pyrazol-3-yl)pyridine-2,4-diamine]
44.2	0.5	0.4	0.4	0.2	3640	0.4	4.1	0.4	0.4	CCS(=O)(=O)n1cc(-c2nccc(Nc3cc(N[C@H]4CC[C@@](C)(O)CC4)c(-c4ccn(C(F)F)n4)cn3)n2)cn1 [Example 308, (1s,4s)-4-((5-(1-(Difluoromethyl)-1H-pyrazol-3-yl)-2-((2-(1-(ethylsulfonyl)-1H-pyrazol-4-yl)pyrimidin-4-yl)amino)pyridin-4-yl)amino)-1-methylcyclohexan-1-ol]
–	0.1	–	–	–	> 10000	36.8	237	4	19	COCn1cc(-c2nccc(Nc3cc(N[C@H]4CC[C@@](C)(O)CC4)c(-c4ccn(C(F)F)n4)cn3)n2)cn1 [Example 310, (1s,4s)-4-((5-(1-(Difluoromethyl)-1H-pyrazol-3-yl)-2-((2-(1-(methoxymethyl)-1H-pyrazol-4-yl)pyrimidin-4-yl)amino)pyridin-4-yl)amino)-1-methylcyclohexan-1-ol]

From US12258327B2, “5-membered heteroaryl-containing aminopyridine compounds as EGFR inhibitors” (YUHAN CORPORATION, priority 2021, dated 2025)
